From patent publication US10316035B2, “Triazolopyridine inhibitors of myeloperoxidase” (BRISTOL-MYERS SQUIBB COMPANY, priority 2015, dated 2019) come the findings set out here.

The IC50 is the midpoint of a concentration-inhibition curve.

The assay concerns the target T1, myeloperoxidase (MPO) (Homo sapiens, UniProt P05164).
T1 sequence (P05164 49-745): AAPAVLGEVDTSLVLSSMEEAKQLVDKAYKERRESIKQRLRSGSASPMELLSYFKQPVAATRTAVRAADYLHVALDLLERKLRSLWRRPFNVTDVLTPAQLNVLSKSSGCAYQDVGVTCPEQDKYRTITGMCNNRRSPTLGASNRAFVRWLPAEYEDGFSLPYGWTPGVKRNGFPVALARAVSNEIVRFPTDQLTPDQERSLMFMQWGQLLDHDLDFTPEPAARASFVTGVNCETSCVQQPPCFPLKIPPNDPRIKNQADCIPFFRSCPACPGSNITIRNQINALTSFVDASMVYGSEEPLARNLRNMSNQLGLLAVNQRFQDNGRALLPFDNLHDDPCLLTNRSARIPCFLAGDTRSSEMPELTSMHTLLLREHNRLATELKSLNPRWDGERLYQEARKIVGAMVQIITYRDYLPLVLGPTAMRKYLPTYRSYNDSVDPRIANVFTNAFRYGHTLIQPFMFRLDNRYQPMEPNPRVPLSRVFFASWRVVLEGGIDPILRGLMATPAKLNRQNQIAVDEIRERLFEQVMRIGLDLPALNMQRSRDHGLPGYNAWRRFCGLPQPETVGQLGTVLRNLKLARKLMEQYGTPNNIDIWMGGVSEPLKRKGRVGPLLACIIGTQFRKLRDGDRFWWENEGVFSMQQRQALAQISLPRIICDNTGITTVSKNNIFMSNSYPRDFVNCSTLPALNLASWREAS
In words: MPO peroxidation assay (Amplex Red assay). Format: biochemical. The conditions noted are these: MPO peroxidation, potency range class; read-out: Amplex Red IC50. Put shortly:
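MPO (200 pM) with 40 nM H2O2 was preincubated 10 min at room temperature with inhibitor in 100 mM KPi pH 7.4. A mix of Amplex Red (200 μM) and H2O2 (10 mM) was then added and resorufin fluorescence read kinetically for 15 min. Slopes over 180–540 s gave % inhibition and IC50 via a four-parameter Hill fit.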
Take `Nc1ccc(-c2ccc(COc3cc(N)nc4[nH]nnc34)c(OC(F)(F)F)c2)cn1` [Example 291, 7-((4-(6-aminopyridin-3-yl)-2-(trifluoromethoxy)benzyl)oxy)-3H-[1,2,3]triazolo[4,5-b] pyridin-5-amine]: the IC50 was 1 to 100 nM.

Consider `N#Cc1ccc(-c2ccc(COc3cc(N)nc4[nH]nnc34)c(OC(F)(F)F)c2)cn1` [Example 292, 5-(4-(((5-amino-3H-[1,2,3]triazolo[4,5-b]pyridin-7-yl)oxy)methyl)-3-(trifluoromethoxy)phenyl)picolinonitrile], for which the IC50 lay in the range of 1 to 100 nM.

As for `CC(C)Oc1ccc(-c2ccc(COc3cc(N)nc4[nH]nnc34)c(OC(F)(F)F)c2)cn1` [Example 293, 7-((4-(6-isopropoxypyridin-3-yl)-2-(trifluoromethoxy)benzyl)oxy)-3H-[1,2,3] triazolo[4,5-b]pyridin-5-amine], the IC50 was 101 to 999 nM. For the molecule `CS(=O)(=O)c1cncc(-c2ccc(COc3cc(N)nc4[nH]nnc34)c(OC(F)(F)F)c2)c1` [Example 294, 7-((4-(5-(methylsulfonyl)pyridin-3-yl)-2-(trifluoromethoxy)benzyl)oxy)-3H-[1,2,3] triazolo[4,5-b]pyridin-5-amine], the IC50 lay within 101 to 999 nM. With `CS(=O)(=O)N1CCN(c2ccc(-c3ccc(COc4cc(N)nc5[nH]nnc45)c(OC(F)(F)F)c3)cn2)CC1` [Example 295, 7-((4-(6-(4-(methylsulfonyl)piperazin-1-yl)pyridin-3-yl)-2-(trifluoromethoxy)benzyl)oxy)-3H-[1,2,3] triazolo[4,5-b]pyridin-5-amine], the IC50 is 101 to 999 nM. Regarding `Nc1cc(OCc2ccc(-c3ccc(CO)nc3)cc2OC(F)(F)F)c2nn[nH]c2n1` [Example 296, (5-(4-(((5-amino-3H-[1,2,3]triazolo[4,5-b]pyridin-7-yl)oxy)methyl)-3-(trifluoromethoxy)phenyl)pyridin-2-yl)methanol], the IC50 lay in the range of 1 to 100 nM. For `Nc1cc(OCc2ccc(-c3ccc(N4CCNCC4)nc3)cc2OC(F)(F)F)c2nn[nH]c2n1` [Example 297, 7-((4-(6-(piperazin-1-yl)pyridin-3-yl)-2-(trifluoromethoxy)benzyl)oxy)-3H-[1,2,3] triazolo[4,5-b]pyridin-5-amine] the value was 1 to 100 nM; for `CN1CCN(c2cc(-c3ccc(COc4cc(N)nc5[nH]nnc45)c(OC(F)(F)F)c3)ccn2)CC1` [Example 299, 7-((4-(2-(4-methylpiperazin-1-yl)pyridin-4-yl)-2-(trifluoromethoxy)benzyl)oxy)-3H-[1,2,3] triazolo[4,5-b]pyridin-5-amine], 1 to 100 nM; for `CN1CCN(c2ccc(-c3ccc(COc4cc(N)nc5[nH]nnc45)c(OC(F)(F)F)c3)cn2)CC1` [Example 300, 7-((4-(6-(4-methylpiperazin-1-yl)pyridin-3-yl)-2-(trifluoromethoxy)benzyl)oxy)-3H-[1,2,3] triazolo[4,5-b]pyridin-5-amine], 1 to 100 nM.

For `Nc1cc(OCc2ccc(-c3cccc(S(N)(=O)=O)c3)cc2OC(F)(F)F)c2nn[nH]c2n1` [Example 301, 4′-(((5-amino-3H-[1,2,3]triazolo[4,5-b]pyridin-7-yl)oxy)methyl)-3′-(trifluoromethoxy)-[1,1′-biphenyl]-3-sulfonamide], the IC50 is 1 to 100 nM. As to `Nc1cc(OCc2ccc(-c3ccc(Cl)nc3)cc2OC(F)(F)F)c2nn[nH]c2n1` [Example 302, 7-((4-(6-chloropyridin-3-yl)-2-(trifluoromethoxy)benzyl)oxy)-3H-[1,2,3] triazolo[4,5-b]pyridin-5-amine], the IC50 fell in the range of 1 to 100 nM.

Consider `Nc1cc(OCc2ccc(-c3ccc(N4CCOCC4)nc3)cc2OC(F)(F)F)c2nn[nH]c2n1` [Example 303, 7-((4-(6-morpholinopyridin-3-yl)-2-(trifluoromethoxy)benzyl)oxy)-3H-[1,2,3] triazolo[4,5-b]pyridin-5-amine], for which the IC50 was 1 to 100 nM.

With `Nc1cc(OCc2ccc(-c3ccnc(O)c3)cc2OC(F)(F)F)c2nn[nH]c2n1` [Example 304, 4-(4-(((5-amino-3H-[1,2,3]triazolo[4,5-b]pyridin-7-yl)oxy)methyl)-3-(trifluoromethoxy)phenyl)pyridin-2-ol], the IC50 lay in the range of 1 to 100 nM. For the molecule `Nc1cc(OCc2ccc(-c3ccc(O)nc3)cc2OC(F)(F)F)c2nn[nH]c2n1` [Example 307, 5-(4-(((5-amino-3H-[1,2,3]triazolo[4,5-b]pyridin-7-yl)oxy)methyl)-3-(trifluoromethoxy)phenyl)pyridin-2-ol], the IC50 was in the range of 1 to 100 nM.

Consider `Nc1cc(OCc2ccc(-c3cncc(F)c3)cc2OC(F)(F)F)c2nn[nH]c2n1` [Example 308, 7-((4-(5-fluoropyridin-3-yl)-2-(trifluoromethoxy)benzyl)oxy)-3H-[1,2,3] triazolo[4,5-b]pyridin-5-amine], for which the IC50 was in the range of 1 to 100 nM. On to `COc1cc(-c2ccc(COc3cc(N)nc4[nH]nnc34)c(OC(F)(F)F)c2)c(F)cn1` [Example 309, 7-((4-(5-fluoro-2-methoxypyridin-4-yl)-2-(trifluoromethoxy)benzyl)oxy)-3H-[1,2,3] triazolo[4,5-b]pyridin-5-amine], for which the IC50 lay in the range of 1 to 100 nM.

In the case of `COc1ccc(-c2ccc(COc3cc(N)nc4[nH]nnc34)c(C#N)c2)cn1` [Example 310, 2-(((5-amino-3H-[1,2,3]triazolo[4,5-b]pyridin-7-yl)oxy)methyl)-5-(6-methoxypyridin-3-yl)benzonitrile], the IC50 lay in the range of 1 to 100 nM. The value for `N#Cc1cc(-c2ccc(N)nc2)ccc1COc1cc(N)nc2[nH]nnc12` [Example 311, 2-(((5-amino-3H-[1,2,3]triazolo[4,5-b]pyridin-7-yl)oxy)methyl)-5-(6-aminopyridin-3-yl)benzonitrile] was 1 to 100 nM; that for `N#Cc1cc(-c2ccc(O)nc2)ccc1COc1cc(N)nc2[nH]nnc12` [Example 312, 2-(((5-amino-3H-[1,2,3]triazolo[4,5-b]pyridin-7-yl)oxy)methyl)-5-(6-hydroxypyridin-3-yl)benzonitrile] was 1 to 100 nM; that for `N#Cc1cc(-c2ccc(CO)nc2)ccc1COc1cc(N)nc2[nH]nnc12` [Example 313, 2-(((5-amino-3H-[1,2,3]triazolo[4,5-b]pyridin-7-yl)oxy)methyl)-5-(6-(hydroxymethyl)pyridin-3-yl)benzonitrile] was 1 to 100 nM. Take `COc1ncc(-c2ccc(COc3cc(N)nc4[nH]nnc34)c(C#N)c2)cn1` [Example 314, 2-(((5-amino-3H-[1,2,3]triazolo[4,5-b]pyridin-7-yl)oxy)methyl)-5-(2-methoxypyrimidin-5-yl)benzonitrile]: the IC50 lay within 1 to 100 nM.

Consider `N#Cc1cc(-c2ccc(C(F)(F)F)nc2)ccc1COc1cc(N)nc2[nH]nnc12` [Example 315, 2-(((5-amino-3H-[1,2,3]triazolo[4,5-b]pyridin-7-yl)oxy)methyl)-5-(6-(trifluoromethyl)pyridin-3-yl)benzonitrile], for which the IC50 lay within 1 to 100 nM. For `N#Cc1cc(-c2ccc(C3CC3)nc2)ccc1COc1cc(N)nc2[nH]nnc12` [Example 316, 2-(((5-amino-3H-[1,2,3]triazolo[4,5-b]pyridin-7-yl)oxy)methyl)-5-(6-cyclopropylpyridin-3-yl)benzonitrile], the IC50 was 1 to 100 nM. Take `CN(C)c1ncc(-c2ccc(COc3cc(N)nc4[nH]nnc34)c(C#N)c2)cn1` [Example 317, 2-(((5-amino-3H-[1,2,3]triazolo[4,5-b]pyridin-7-yl)oxy)methyl)-5-(2-(dimethylamino)pyrimidin-5-yl)benzonitrile]: the IC50 was 1 to 100 nM.
